# According to article PMC12163822, “Synthesis and Pharmacological Characterization of a Novel Cannabinoid Receptor 1 Antagonist” (ACS Omega, 2025):
# “Also recorded” adds a separate entry of the source.
# Experiments:
# human CB1 receptor [1] = molecular target: T1, human CB1 receptor (Homo sapiens, UniProt P21554); test: [3H]CP55,940 inhibition curves in membranes from CHO cells overexpressing human CB1; type: binding
# T1 construct: purchased Sigma-Aldrich; host or cells: CHO cells
# Procedure: Membrane homogenates from CHO cells overexpressing human CB1 and CB2 receptors, as well as matched wild-type cells, were used to test newly synthesized compounds and were acquired from Sigma-Aldrich (St Louis, MO, USA).
# To stop the reaction, an ice-cold wash buffer (50 mM Tris–HCl and 0.5% BSA, pH 7.4) was added. Then, the membranes were retained by vacuum filtration to a Whatman GF/C glass microfiber filter (Sigma-Aldrich, St. Louis, MO, USA) and the free radioligand was discarded. Filters with the bound radioligand were transferred to vials containing 5 mL of Ultima Gold cocktail (Revvity, Boston, MA, USA) and measured with a Packard Tri-Carb 2200CA liquid scintillation counter (Revvity, Boston, MA, USA).
# A concentration of 0.02 mg/mL of commercial WT (as control) and CB1 and CB2 overexpressing CHO cells were used, and the same protocol described above was followed. Rat spleen homogenates were also used at a concentration of 0.1 mg/mL as a further characterization of binding to the CB2 receptor, given the high expression of this receptor in this tissue and the practical lack of CB1 in it.
# human CB1 receptor [2] = molecular target: T1, human CB1 receptor; test: [35S]GTPγS functional binding assay in CHO cells overexpressing human CB1; type: biochemical; details: CB1 overexpressing CHO membranes, result in words
# Procedure: (§1) The compound with the best affinity was also tested using functional [^35S]-GTPγS binding assays to characterize its activity as an agonist or antagonist/inverse agonist. A protein concentration of 0.1 mg/mL of rat cortex homogenates and a protein concentration of 0.02 mg/mL of commercial CB1 overexpressing CHO cells were used for these assays, suspended in a reaction buffer (Tris–HCl 50 mM, EGTA 1 mM, MgCl2 3 mM, NaCl 100 mM, 0.5% BSA; pH 7.4). The target compound was used in concentrations ranging from 10^–11 to 10^–4 M and incubated for 2 h at 37 °C with agitation in the presence of 0.5 nM [^35S]-GTPγS and 50 μM GDP. Basal coupling of [^35S]-GTPγS to Gi/o proteins was determined by incubating the membrane aliquots with the radioligand in the absence of the target compound. To define nonspecific binding, 10 μM of unlabeled GTPγS was added to the incubation.
# CB1 receptor [3] = molecular target: T2, CB1 receptor (Mus musculus, UniProt P47746); test: Functional [35S]GTPγS autoradiography in mouse brain slices; type: biochemical, Swiss mice; details: for [35S]GTPγS binding, Stimulation (% over basal), CP55,940 + UVI3502 / [35S]GTPγS binding, Stimulation (% over basal): mouse; for [35S]GTPγS binding, Stimulation (% over basal), CP55,940 + UVI3502: CP55,940 and UVI3502 both at 10 µM; for [35S]GTPγS binding, Stimulation (% over basal): compound alone 10 µM
# T2 construct: fresh frozen sections from brain samples from wild-type; from tissue; host or cells: Swiss mouse brain sections
# T2 sequence (P47746 whole entry): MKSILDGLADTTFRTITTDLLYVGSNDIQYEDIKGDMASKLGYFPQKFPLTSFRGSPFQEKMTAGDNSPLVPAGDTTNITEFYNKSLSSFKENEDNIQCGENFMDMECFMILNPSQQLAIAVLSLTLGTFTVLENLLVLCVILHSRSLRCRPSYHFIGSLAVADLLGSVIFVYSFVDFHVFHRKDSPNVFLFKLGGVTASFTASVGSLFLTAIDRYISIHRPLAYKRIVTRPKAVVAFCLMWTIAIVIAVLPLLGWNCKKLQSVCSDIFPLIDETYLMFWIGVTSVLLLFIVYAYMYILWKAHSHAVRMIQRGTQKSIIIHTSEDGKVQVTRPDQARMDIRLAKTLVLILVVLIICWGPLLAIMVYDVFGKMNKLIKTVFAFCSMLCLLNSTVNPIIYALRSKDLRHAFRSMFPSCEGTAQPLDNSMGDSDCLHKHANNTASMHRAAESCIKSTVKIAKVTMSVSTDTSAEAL
# Procedure: (§2) All brain sections were air-dried for 30 min and then immersed in Coplin jars for preincubation (4 times, 15 min each time) in an HEPES-based buffer (50 mM HEPES, 100 mM NaCl, 3 mM MgCl2, 0.2 mM EGTA, 0.5% BSA; pH 7.4) at 30 °C. The objective of this preincubation was the removal of endogenous ligands. […] Basal [^35S]-GTPγS binding was defined in the absence of the agonists in two consecutive slices. To define nonspecific binding, 10 μM of unlabeled GTPγS was added to the incubation in another section. Following incubation, slices were twice washed in an ice-cold 50 mM HEPES buffer (pH 7.4), dried, and exposed for 48 h to β-radiation sensitive film with a set of [^14C] standards calibrated for [^35S]. Calibrated films were scanned and quantified using Fiji software (Fiji, Bethesda, […], USA). The signal corresponding to nonspecific binding was previously subtracted from the basal and agonist-stimulated binding. Then, the data was expressed as the percentage of stimulation over basal following the formula: ([^35S]-GTPγS agonist-stimulated binding) × 100/([^35S]-GTPγS basal binding)-100.
# CB1 receptor [4] = molecular target: T3, CB1 receptor (Rattus norvegicus, UniProt P20272); test: Functional [35S]GTPγS autoradiography in rat brain slices; type: biochemical, Sprague-Dawley rat; design: fresh frozen sections from brain samples from wild-type; from tissue; host or cells: Sprague-Dawley rat brain sections; details: for [35S]GTPγS binding, Stimulation (% over basal), CP55,940 + UVI3502 / [35S]GTPγS binding, Stimulation (% over basal): rat; for [35S]GTPγS binding, Stimulation (% over basal), CP55,940 + UVI3502: CP55,940 and UVI3502 both at 10 µM; for [35S]GTPγS binding, Stimulation (% over basal): compound alone 10 µM
# T3 sequence (P20272 whole entry): as the sequence (P47746 whole entry) above, with D95E counted along it
# Procedure: as §2
# CB1 receptor [5] = molecular target: T3, CB1 receptor; test: [35S]GTPγS functional binding assay in rat cortex membrane homogenates; type: biochemical; design: functional assays in membrane homogenates from the rat cortical tissue; from tissue; host or cells: Sprague-Dawley rat brain cortex
# Procedure: as §1
# [6] = nucleus basalis magnocellularis
# T1 sequence (P21554 whole entry): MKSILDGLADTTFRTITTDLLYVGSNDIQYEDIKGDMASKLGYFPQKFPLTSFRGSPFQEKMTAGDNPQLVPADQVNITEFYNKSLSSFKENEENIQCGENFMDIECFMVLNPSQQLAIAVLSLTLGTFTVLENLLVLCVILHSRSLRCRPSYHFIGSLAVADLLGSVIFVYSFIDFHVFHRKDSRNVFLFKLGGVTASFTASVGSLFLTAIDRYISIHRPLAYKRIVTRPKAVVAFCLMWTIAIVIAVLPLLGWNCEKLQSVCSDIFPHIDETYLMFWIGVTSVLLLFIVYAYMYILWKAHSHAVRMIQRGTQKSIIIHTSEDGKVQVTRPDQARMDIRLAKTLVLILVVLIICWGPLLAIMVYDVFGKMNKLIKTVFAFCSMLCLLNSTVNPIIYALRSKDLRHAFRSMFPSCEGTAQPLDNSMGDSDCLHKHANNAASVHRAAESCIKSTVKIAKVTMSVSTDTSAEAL
smiles,measurement,setting,value
CCOC(=O)/C=C1\C(=O)Nc2ccc(C)cc2-c2c1c1cc(OC)ccc1n2C(=O)OCC [UVI3502],IC50,human CB1 receptor [1],4640 ± 1600 nM
same,"total inhibition of [3H]CP55,940 binding",human CB1 receptor [1]; CB1 overexpressing CHO membranes,approximately 38%
same,stimulation of [35S]GTPγS binding (coupling of CB1 to Gi/o proteins),human CB1 receptor [2],does not; also recorded: did not stimulate the coupling of CB1 receptors to Gi/o proteins
same,"activity on CP55,940-evoked [35S]GTPγS stimulation","CB1 receptor [3]; mouse brain slices, 10 µM, result in words",acts as an antagonist
same,"[35S]GTPγS binding, Stimulation (% over basal), CP55,940 + UVI3502",CB1 receptor [3]; amygdala,0 ± 78 % over basal
same,"[35S]GTPγS binding, Stimulation (% over basal)",CB1 receptor [3]; amygdala,-16 ± 51 % over basal
same,"[35S]GTPγS binding, Stimulation (% over basal), CP55,940 + UVI3502",CB1 receptor [3]; cerebellum (gray matter),6 ± 23 % over basal
same,"[35S]GTPγS binding, Stimulation (% over basal)",CB1 receptor [3]; cerebellum (gray matter),-43 ± 9 % over basal
same,"[35S]GTPγS binding, Stimulation (% over basal), CP55,940 + UVI3502",CB1 receptor [3]; cortex,-51 ± 11 % over basal
same,"[35S]GTPγS binding, Stimulation (% over basal)",CB1 receptor [3]; cortex,-55 ± 9 % over basal
same,"[35S]GTPγS binding, Stimulation (% over basal), CP55,940 + UVI3502",CB1 receptor [3]; globus pallidus,91 ± 104 % over basal
same,"[35S]GTPγS binding, Stimulation (% over basal)",CB1 receptor [3]; globus pallidus,-46 ± 29 % over basal
same,"[35S]GTPγS binding, Stimulation (% over basal), CP55,940 + UVI3502",CB1 receptor [3]; hippocampus dorsal,-36 ± 8 % over basal
same,"[35S]GTPγS binding, Stimulation (% over basal)",CB1 receptor [3]; hippocampus dorsal,-38 ± 12 % over basal
same,"[35S]GTPγS binding, Stimulation (% over basal), CP55,940 + UVI3502",CB1 receptor [3]; [6],-30 ± 37 % over basal
same,"[35S]GTPγS binding, Stimulation (% over basal)",CB1 receptor [3]; [6],-20 ± 65 % over basal
same,"[35S]GTPγS binding, Stimulation (% over basal), CP55,940 + UVI3502",CB1 receptor [3]; striatum,-52 ± 13 % over basal
same,"[35S]GTPγS binding, Stimulation (% over basal)",CB1 receptor [3]; striatum,-52 ± 18 % over basal
same,"[35S]GTPγS binding, Stimulation (% over basal), CP55,940 + UVI3502",CB1 receptor [3]; substantia nigra,181 ± 128 % over basal
same,"[35S]GTPγS binding, Stimulation (% over basal)",CB1 receptor [3]; substantia nigra,-58 ± 11 % over basal
same,"activity on CP55,940-evoked [35S]GTPγS stimulation","CB1 receptor [4]; rat brain slices, 10 µM, result in words",acts as an antagonist
same,"[35S]GTPγS binding, Stimulation (% over basal), CP55,940 + UVI3502",CB1 receptor [4]; amygdala,-47 ± 30 % over basal
same,"[35S]GTPγS binding, Stimulation (% over basal)",CB1 receptor [4]; amygdala,-35 ± 19 % over basal
same,"[35S]GTPγS binding, Stimulation (% over basal), CP55,940 + UVI3502",CB1 receptor [4]; cerebellum (gray matter),-46 ± 31 % over basal
same,"[35S]GTPγS binding, Stimulation (% over basal)",CB1 receptor [4]; cerebellum (gray matter),-16 ± 51 % over basal
same,"[35S]GTPγS binding, Stimulation (% over basal), CP55,940 + UVI3502",CB1 receptor [4]; cortex,-60 ± 10 % over basal
same,"[35S]GTPγS binding, Stimulation (% over basal)",CB1 receptor [4]; cortex,-45 ± 24 % over basal
same,"[35S]GTPγS binding, Stimulation (% over basal), CP55,940 + UVI3502",CB1 receptor [4]; globus pallidus,89 ± 42 % over basal
same,"[35S]GTPγS binding, Stimulation (% over basal)",CB1 receptor [4]; globus pallidus,-3 ± 46 % over basal
same,"[35S]GTPγS binding, Stimulation (% over basal), CP55,940 + UVI3502",CB1 receptor [4]; hippocampus dorsal,-62 ± 6 % over basal
same,"[35S]GTPγS binding, Stimulation (% over basal)",CB1 receptor [4]; hippocampus dorsal,-40 ± 26 % over basal
same,"[35S]GTPγS binding, Stimulation (% over basal), CP55,940 + UVI3502",CB1 receptor [4]; [6],-40 ± 11 % over basal
same,"[35S]GTPγS binding, Stimulation (% over basal)",CB1 receptor [4]; [6],-35 ± 30 % over basal
same,"[35S]GTPγS binding, Stimulation (% over basal), CP55,940 + UVI3502",CB1 receptor [4]; striatum,-54 ± 23 % over basal
same,"[35S]GTPγS binding, Stimulation (% over basal)",CB1 receptor [4]; striatum,-34 ± 25 % over basal
same,"[35S]GTPγS binding, Stimulation (% over basal), CP55,940 + UVI3502",CB1 receptor [4]; substantia nigra,14 ± 80 % over basal
same,"[35S]GTPγS binding, Stimulation (% over basal)",CB1 receptor [4]; substantia nigra,-41 ± 24 % over basal
same,stimulation of [35S]GTPγS binding (coupling of CB1 to Gi/o proteins),"CB1 receptor [5]; rat cortex membrane homogenates, result in words",does not; also recorded: did not stimulate the coupling of CB1 receptors to Gi/o proteins
same,EC50,"CB1 receptor [5]; slight decrease of baseline [35S]GTPγS binding, rat brain cortex membrane homogenates",4.06 ± 3.27 nM
